Experimental data as given in US5045559A, “Treatment of skin disorders” (priority 1988, dated 1991).
Read-outs that look alike come from different tables or passages of the source.

Columns and labels:
[1] = In vitro delivery of pyroglutamic acid to stratum corneum of the rat (tritiated esters on newborn rat skin, resistant to 2 h water washing); assay type: in vitro ADME
Protocol: In vitro evidence to confirm delivery of pyroglutamic acid to stratum corneum of the rat
In an in vitro laboratory test, esters of pyroglutamic acid labelled with ^3 H on the pyroglutamic acid residue were applied as a 1% by weight solution in ethanol to newborn rat skin held in a glass cell, allowing the dermal side of the skin to be bathed in a buffered salts solution while the epidermal surface was exposed to normal atmospheric conditions. After 24 hours, samples of skin were taken and washed with continuous agitation in several charges of water at room temperature.
Interfollicular epidermis was removed from these skin pieces by "freeze scraping"-which avoids contamination of the sample by follicular tissue or material trapped within the hair follicle. The epidermis was then extracted in methanol and the soluble extract analysed by column chromatography. The amount of tritiated pyroglutamic acid present in the epidermis in a form resistant to a period of 2 hours continuous washing with water was measured. The quantity of tritiated pyroglutamic acid delivered and retained by the skin in this way is recorded in Table 1 below: […]

[2] = In vivo delivery to human stratum corneum (tritiated esters applied to arms of volunteers, tape stripping); conditions: 18 hours; for Pyroglutamic acid delivered, Ethanol base: 1% w/v in anhydrous ethanol; for Pyroglutamic acid delivered, Cream base: 1% w/v in oil-in-water emulsion base
Description: Accordingly, [^3 H] esters of pyroglutamic acid were each dissolved at 1% w/v in anhydrous ethanol or in an oil-in-water emulsion base. […] The [^3 H] pyroglutamic acid was separated from unchanged ester by chromotography on AG1X8 resin and the amount delivered to the skin expressed as nmoles per mg of stratum corneum protein.

SMILES | Pyroglutamic acid delivered [1] [n moles/cm^2 skin] | Pyroglutamic acid delivered, Ethanol base [2] [n mol/mg protein] | Pyroglutamic acid delivered, Cream base [2] [n mol/mg protein] | other results
COC(=O)[C@@H]1CCC(=O)N1 [Pyroglutamic acid, methyl ester, pyroglutamic acid methyl ester] | 17 ± 5 |  |  | 
CCCOC(=O)[C@@H]1CCC(=O)N1 [Pyroglutamic acid, n-propyl ester, pyroglutamic acid n-propyl ester] | 21 ± 8 |  |  | 
CCCCOC(=O)[C@@H]1CCC(=O)N1 [Pyroglutamic acid, n-butyl ester, pyroglutamic acid n-butyl ester] | 17 ± 8 | 6 | 2 | 
O=C1CCC(C(=O)O)N1 (stereo not shown) [pyroglutamic acid, 2-pyrrolidone-5-carboxylic acid, reference compound] |  |  |  | amount recovered from / reaching the stratum corneum following topical application (in words) [2]: little pyroglutamic acid reached the stratum corneum if applied as the free acid; amount recovered from / reaching the stratum corneum following topical application (in words) ([2]; listed as [^3 H] pyroglutamic acid): negligible amount
CCOC(=O)[C@@H]1CCC(=O)N1 [Pyroglutamic acid, ethyl ester, pyroglutamic acid ethyl ester] |  | 8 | 5 | Pyroglutamic acid delivered ([1]; 1% by weight in ethanol, newborn rat skin, 24 hours, resistant to 2 hours continuous washing with water): 18 ± 5 n moles/cm^2 skin
CCCCCCCCOC(=O)[C@@H]1CCC(=O)N1 [Pyroglutamic acid, n-octyl ester, pyroglutamic acid n-octyl ester] | 36 ± 7 | 4 | 1 | delivery to the stratum corneum of pyroglutamic acid which resisted washing out with water (in words) [1]: best result
CCCCCCCCCCCCOC(=O)[C@@H]1CCC(=O)N1 [Dodecyl, pyroglutamic acid n-dodecyl ester] |  | 4 | 1 | 
CCCCCCOC(=O)[C@@H]1CCC(=O)N1 [Pyroglutamic acid, n-hexyl ester, pyroglutamic acid n-hexyl ester] | 32 ± 10 | 5 | 2 | 
